Assay [1] has as its target T1, yThg1 (yeast Thg1, tRNA^His guanylyltransferase) (Saccharomyces cerevisiae, UniProt P53215).
T1 sequence (P53215 1-237): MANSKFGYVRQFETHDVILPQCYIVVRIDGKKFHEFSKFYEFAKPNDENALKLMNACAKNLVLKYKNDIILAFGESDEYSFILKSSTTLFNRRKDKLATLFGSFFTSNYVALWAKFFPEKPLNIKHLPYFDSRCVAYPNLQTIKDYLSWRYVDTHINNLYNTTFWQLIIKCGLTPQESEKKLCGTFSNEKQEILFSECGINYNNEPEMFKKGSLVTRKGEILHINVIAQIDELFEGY
Put plainly: single-turnover adenylylation kinetics, […]'-32P tRNA. The format is biochemical. The following applies: read-out: KDapp,NTP, adenylylation step, 15 μM enzyme, 10 mM MgCl2, pH 6.0, room temperature.

Assay [2] deals with T1, yThg1 (yeast Thg1, tRNA^His guanylyltransferase). Put plainly: single-turnover nucleotidyl transfer kinetics, gamma-32P ppp-tRNA. Conditions: read-out: KDapp,NTP, nucleotidyl transfer step, 15 μM enzyme, 10 mM MgCl2, pH 7.5, room temperature. The format is biochemical.

Structures are written as SMILES.

Turning to `Nc1ncnc2c1ncn2[C@@H]1O[C@H](COP(=O)(O)OP(=O)(O)OP(=O)(O)O)[C@@H](O)[C@H]1O` [ATP], the Kd in assay [1] stood at 360 ± 80 µM.

Regarding `Nc1nc2c(ncn2[C@@H]2O[C@H](COP(=O)(O)OP(=O)(O)OP(=O)(O)O)[C@@H](O)[C@H]2O)c(=O)[nH]1` [GTP], the Kd in assay [2] was determined as 21 ± 4 µM.

The values above are taken from paper PMC3254824 (Biochemistry, 2011).
